Laboratory results published in PMC12281475, “Mediator Kinase Inhibitor Selectivity and Activity in Colorectal Cancer” (ACS Chemical Biology, 2025).

System: SW620 cells
Experiment: Promoter reporter panel (transient luciferase constructs), SW620
Assay type: cell-based, human
Details: parent SW620, 350 nM, 6 h
Method: Transcription factor activity was assayed in cell lines using 45 different plasmid reporter constructs encoding firefly luciferase under the control of a basal promoter element downstream of specific transcriptional response elements (Qiagen, Germany; Supporting Table S1). Firefly luciferase under the control of basal promoter element alone was used to establish the baseline signal and cotransfection of a construct expressing renilla luciferase from a CMV-promoter was used as a transfection control. Cells were reverse-transfected with reporter plasmids, compounds were added 42 h post transfection and reporter activity quantified following 6 h continuous exposure. […]
multichannel pipette. Where indicated, spheroids were treated at day 4. At days 3, 6 and 8 following compound addition, 50% medium replenishment was performed. Cell-titre Glo analyses were carried out at day 14 for luminescence measurement on a Synergy 2 SL Luminescence microplate reader (BioTek, UK). Values are means ± […]
Single and double knockout clones of human SW620 colon cancer cells lacking CDK8, CDK19 or both kinases were generated using a CRISPR/Cas9 knockout strategy.
Constructs for knockout carried a Cas9 gene, a fluorescent protein gene (GFP for CDK8 and RFP for CDK19) and sgRNAs to human CDK8 […]
Single and double CDK8 and CDK19 knockout clones were generated by transiently transfecting SW620 cells using Lipofectamine 3000 (Thermo Fisher Scientific, UK).
Cells were harvested 72 hours post-transfection and the top 1% GFP, RFP or GFP/RFP positive cells were sorted by FACS into 96 well plates at one cell/well.
Knockout clones were identified by a capillary immunoassay for CDK8 or CDK19 […]
kinase mutant (CDK8D173A)2 were established by transfection of CDK8 CRISPR knockout clone 1 with a pCMV6-CDK8-cMyc-FLAG construct.
Transcription factor promoter reporter assays were carried out to define signalling pathways and biological processes modulated by CDK8/19 ligands. […]
and body weights recorded.

Cn1cc(-c2ccc(-c3cncc(Cl)c3N3CCC4(CCNC4=O)CC3)cc2)cn1 [CCT251545]
p53 reporter activity: significant decrease | AARE promoter reporter activity relative to vehicle control (mean ± s.e.m): 0.82 ± 0.06 | AP1 promoter reporter activity relative to vehicle control (mean ± s.e.m): 0.78 ± 0.04
